# Numbering of substitutions follows the chain as printed. Values joined by “and” are separate entries in the source; they are usually repeats but may differ in a detail not shown here. Identical values can stand only once.
# How the values were obtained:
# [1] = biological target: T1, wild-type hSGLT2 (membrane fraction of hSGLT2 and MAP17 expressing cells) (Homo sapiens, UniProt P31639); assay: SGLT2 inhibitor-binding assay via affinity selection–mass spectrometry, crude membrane, WT
# T1 construct: expressed in transfected cells; host or cells: Expi293 cells, crude membrane fraction
# T1 sequence (P31639 1-672): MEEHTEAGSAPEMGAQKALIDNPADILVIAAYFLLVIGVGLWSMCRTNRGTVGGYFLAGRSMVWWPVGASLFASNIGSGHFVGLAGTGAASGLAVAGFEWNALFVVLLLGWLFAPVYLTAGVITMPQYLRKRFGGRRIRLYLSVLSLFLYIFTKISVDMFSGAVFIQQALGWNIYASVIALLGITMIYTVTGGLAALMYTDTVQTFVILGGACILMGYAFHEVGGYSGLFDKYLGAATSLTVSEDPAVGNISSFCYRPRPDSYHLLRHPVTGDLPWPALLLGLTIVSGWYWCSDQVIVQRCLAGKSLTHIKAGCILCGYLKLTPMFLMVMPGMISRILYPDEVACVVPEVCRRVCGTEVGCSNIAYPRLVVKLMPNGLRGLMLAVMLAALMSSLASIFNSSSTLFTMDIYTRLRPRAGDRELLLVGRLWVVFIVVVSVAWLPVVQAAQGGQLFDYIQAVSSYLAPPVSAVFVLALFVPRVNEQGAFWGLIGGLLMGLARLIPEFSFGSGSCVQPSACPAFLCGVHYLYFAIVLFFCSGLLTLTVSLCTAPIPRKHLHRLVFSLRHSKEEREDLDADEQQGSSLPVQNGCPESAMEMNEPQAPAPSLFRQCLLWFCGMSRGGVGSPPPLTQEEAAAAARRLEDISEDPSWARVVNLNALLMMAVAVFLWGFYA
# T1 sequence (Q13113 1-114 partner): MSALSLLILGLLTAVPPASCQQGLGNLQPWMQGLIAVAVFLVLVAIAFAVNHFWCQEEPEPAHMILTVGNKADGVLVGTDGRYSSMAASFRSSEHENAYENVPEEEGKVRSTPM
# Description: To examine the inhibition of binding to the crude membrane, mammalian Expi293 cells were co-transfected with the hMAP17 and hSGLT2 plasmids, as described. The cells were collected and disrupted by sonication in a hypotonic buffer (50 mM HEPES–NaOH (pH 7.5), 10 mM KCl and protease inhibitor cocktail) or Na^+-free hypotonic buffer (50 mM Tris–HCl (pH 7.5), 10 mM KCl and protease inhibitor cocktail). The cell debris were removed by centrifugation (2,000g, 5 min, 4 °C). The membrane fraction was collected by ultracentrifugation (112,000g, 30 min, 4 °C) and stored at −80 °C before use. The crude membrane (250 μg per sample) was incubated with SGLT2 inhibitor in an assay buffer (100 mM NaCl and 10 mM HEPES/Tris, pH 7.4) or Na^+-free assay buffer (100 mM choline chloride and 10 mM HEPES/Tris, pH 7.4) at room temperature for 2 h. Reactions were terminated by filtration through a GF/C filter plate (Corning) presoaked in assay buffer containing 0.1% bovine serum albumin. The sample in the filter plate was washed three times with the assay buffer and eluted with acetonitrile: water (80:20, v/v). The extract solution from the filter plate was diluted with water containing candesartan as an internal standard, and the SGLT2 inhibitor concentration was quantified via LC–MS/MS.
# (§1) Nonspecific binding was measured using the crude membrane of nontransfected Expi293 cells. Specific binding was calculated by subtracting nonspecific binding from the binding of hSGLT2-expressing cells. Specific binding was normalized to hSGLT2 protein expression levels, measured via FSEC. The equilibrium dissociation constant (Kd) and maximum number of binding sites (Bmax) were calculated via nonlinear regression in GraphPad Prism 8.4.3. The specific binding of the hSGLT2 mutants was normalized to the Bmax of WT hSGLT2.
# The concentrations of the extract solution from the filter plate and of the cell lysate were quantified using a tandem mass spectrometry QTRAP6500 System (SCIEX) coupled with an ACQUITY UPLC system (Waters) using the internal standard method. Mobile phases A and B used 10 mM of ammonium bicarbonate and acetonitrile, respectively.
# hSGLT2 F98A = biological target: T2, hSGLT2 F98A (Homo sapiens, UniProt P31639, F98A); assay: SGLT2 inhibitor-binding assay (AS-MS), crude membrane, F98A mutant; set-up: expressed in transfected cells; host or cells: Expi293 cells, crude membrane fraction; details: 30 nM canagliflozin, replicates
# T2 sequence (P31639 1-672 F98A): T1 sequence (P31639 1-672) with F98A
# T2 sequence (Q13113 1-114 partner): T1 sequence (Q13113 1-114 partner)
# From the text: hSGLT2 complementary DNA and human MAP17 cDNA were synthesized and codon-optimized for expression in human cell lines. Both cDNAs were cloned into the pcDNA3.4 vector. The hSGLT2 sequence was fused with an N-terminal signal sequence from human trypsinogen 1, a His10 tag, and sfGFP, followed by a human rhinovirus 3C protease (HRV3C protease) recognition site. Point mutations were introduced into this construct using site-directed mutagenesis. These plasmids were utilized for all experimental procedures conducted in this study.
# To examine the inhibition of binding to the crude membrane, mammalian Expi293 cells were co-transfected with the hMAP17 and hSGLT2 plasmids, as described. […] The extract solution from the filter plate was diluted with water containing candesartan as an internal standard, and the SGLT2 inhibitor concentration was quantified via LC–MS/MS.
# as §1, with “The specific binding of the hSGLT2 mutants was normalized to the Bmax of WT hSGLT2.” left out
structure (smiles),measurement,setting,value
Cc1ccc([C@@H]2O[C@H](CO)[C@@H](O)[C@H](O)[C@H]2O)cc1Cc1ccc(-c2ccc(F)cc2)s1 [Canagliflozin],Canagliflozin binding (% of WT),"[1]; 30 nM canagliflozin, WT, replicates",95.0024 % of WT and 98.5721 % of WT and 106.426 % of WT
same,Canagliflozin binding (% of hSGLT2),"[1]; 30 nM canagliflozin, hSGLT2 membrane",85.124 % of hSGLT2 and 96.4187 % of hSGLT2 and 118.457 % of hSGLT2
same,Bmax,"[1]; Na(+), mean ± SEM n=3",1.91 ± 0.16 pmol/mg-protein
same,Kd,"[1]; Na(+), mean ± SEM n=3",94 ± 21.8 nM
same,Bmax,"[1]; Na(-), mean ± SEM n=3",1.33 ± 0.12 pmol/mg-protein
same,Kd,"[1]; Na(-), mean ± SEM n=3",109 ± 25.4 nM
same,Canagliflozin binding,"[1]; Sodium 0 mM, replicates",0.5239 pmol/mg-protein and 0.5745 pmol/mg-protein and 0.6364 pmol/mg-protein
same,Canagliflozin binding,"[1]; Sodium 1 mM, replicates",0.4659 pmol/mg-protein and 0.5424 pmol/mg-protein and 0.6685 pmol/mg-protein
same,Canagliflozin binding,"[1]; Sodium 10 mM, replicates",0.8906 pmol/mg-protein and 0.8030 pmol/mg-protein and 0.9338 pmol/mg-protein
same,Canagliflozin binding,"[1]; Sodium 100 mM, replicates",0.9992 pmol/mg-protein and 1.5850 pmol/mg-protein and 1.3270 pmol/mg-protein
same,Bmax in the absence versus the presence of Na+ (in words),[1]; absence vs presence of Na+,partially lower
same,Kd,"[1]; in the presence of sodium, rounded value quoted by the referee in peer review file",~100 nM
same,Canagliflozin binding (% of WT),hSGLT2 F98A,-6.142 % of WT and -5.964 % of WT and -3.041 % of WT
